Laboratory results as given in ChEMBL document CHEMBL1629678, “Apricitabine does not select additional drug resistance mutations in tissue culture in human immunodeficiency virus type 1 variants containing K65R, M184V, or M184V plus thymidine analogue mutations” (Antimicrob Agents Chemother, 2009).

Tests used:
[1] = test system: Human immunodeficiency virus 1; assay: Selectivity ratio of IC50 for 32 week drug adapted HIV1 HXB-2D harboring reverse transcriptase K65R mutant gene to IC50 for HIV1 HXB-2D harboring reverse transcriptase K65R mutant gene; assay type: functional
[2] = test system: Human immunodeficiency virus 1; assay: Selectivity ratio of IC50 for 17 week drug adapted HIV1 HXB-2D harboring reverse transcriptase S68S/G mutant gene to IC50 for HIV1 HXB-2D harboring reverse transcriptase K65R mutant gene; assay type: functional
[3] = test system: Human immunodeficiency virus 1; assay: Selectivity ratio of IC50 for 8 week drug adapted HIV1 HXB-2D harboring reverse transcriptase K65R mutant gene to IC50 for HIV1 HXB-2D harboring reverse transcriptase K65R mutant gene; assay type: functional
[4] = test system: Human immunodeficiency virus 1; assay: Selectivity ratio of IC50 for 38 week drug adapted HIV1 HXB-2D harboring reverse transcriptase S68S/G mutant gene to IC50 for HIV1 HXB-2D harboring reverse transcriptase K65R mutant gene; assay type: functional
[5] = test system: Human immunodeficiency virus 1; assay: Selectivity ratio of IC50 for 17 week drug adapted HIV1 HXB-2D harboring reverse transcriptase D237N mutant gene to IC50 for HIV1 HXB-2D harboring wild type reverse transcriptase; assay type: functional
[6] = test system: Human immunodeficiency virus 1; assay: Selectivity ratio of IC50 for 8 week drug adapted HIV1 HXB-2D harboring reverse transcriptase D237N mutant gene to IC50 for HIV1 HXB-2D harboring wild type reverse transcriptase; assay type: functional
[7] = test system: Human immunodeficiency virus 1; assay: Selectivity ratio of IC50 for 32 week drug adapted HIV1 HXB-2D harboring wild type reverse transcriptase to IC50 for HIV1 HXB-2D harboring wild type reverse transcriptase; assay type: functional
[8] = test system: Human immunodeficiency virus 1; assay: Selectivity ratio of IC50 for 38 week drug adapted HIV1 HXB-2D harboring reverse transcriptase I50T/II, D237N/D mutant gene to IC50 for HIV1 HXB-2D harboring wild type reverse transcriptase; assay type: functional
[9] = test system: Human immunodeficiency virus 1; assay: Selectivity ratio of IC50 for 48 week drug adapted HIV1 HXB-2D harboring reverse transcriptase M184V mutant gene to IC50 for HIV1 HXB-2D harboring wild type reverse transcriptase; assay type: functional
[10] = test system: Human immunodeficiency virus 1; assay: Selectivity ratio of IC50 for 51 week drug adapted HIV1 HXB-2D harboring reverse transcriptase M184V, K65R mutant gene to IC50 for HIV1 HXB-2D harboring wild type reverse transcriptase; assay type: functional
[11] = test system: Human immunodeficiency virus 1; assay: Selectivity ratio of IC50 for 51 week drug adapted HIV1 HXB-2D harboring reverse transcriptase M184V/M, K65R mutant gene to IC50 for HIV1 HXB-2D harboring wild type reverse transcriptase; assay type: functional
[12] = test system: Human immunodeficiency virus 1; assay: Selectivity ratio of IC50 for 8 week drug adapted HIV1 HXB-2D harboring reverse transcriptase M184V, M41L, T215Y mutant gene to IC50 for HIV1 HXB-2D harboring reverse transcriptase M184V, M41L, T215Y mutant gene; assay type: functional
[13] = test system: Human immunodeficiency virus 1; assay: Selectivity ratio of IC50 for 20 week drug adapted HIV1 HXB-2D harboring reverse transcriptase M184V, M41L, T215Y mutant gene to IC50 for HIV1 HXB-2D harboring reverse transcriptase M184V, M41L, T215Y mutant gene; assay type: functional
[14] = test system: Human immunodeficiency virus 1; assay: Selectivity ratio of IC50 for 28 week drug adapted HIV1 HXB-2D harboring reverse transcriptase M184V, M41L, T215Y mutant gene to IC50 for HIV1 HXB-2D harboring reverse transcriptase M184V, M41L, T215Y mutant gene; assay type: functional
[15] = test system: Human immunodeficiency virus 1; assay: Selectivity ratio of IC50 for HIV1 HXB-2D harboring reverse transcriptase M184V, M41L and T215Y mutant gene to IC50 for wild type HIV1 HXB-2D infected in human cord blood mononuclear cells; assay type: functional
[16] = test system: Human immunodeficiency virus 1; assay: Selectivity ratio of IC50 for HIV1 HXB-2D harboring reverse transcriptase K65R mutant gene to IC50 for wild type HIV1 HXB-2D infected in human cord blood mononuclear cells; assay type: functional
[17] = test system: Human immunodeficiency virus 1; assay: Selectivity ratio of IC50 for HIV1 HXB-2D harboring reverse transcriptase M184V mutant gene to IC50 for wild type HIV1 HXB-2D infected in human cord blood mononuclear cells; assay type: functional
[18] = test system: Human immunodeficiency virus 1; assay: Antiviral activity against HIV1 HXB-2D harboring reverse transcriptase M184V, M41L and T215Y mutant gene infected in human cord blood mononuclear cells; assay type: functional, organism-based; settings: Human immunodeficiency virus 1, HXB-2D
[19] = test system: Human immunodeficiency virus 1; assay: Antiviral activity against HIV1 HXB-2D harboring reverse transcriptase K65R mutant gene infected in human cord blood mononuclear cells; assay type: functional, organism-based; settings: Human immunodeficiency virus 1, HXB-2D
[20] = test system: Human immunodeficiency virus 1; assay: Antiviral activity against HIV1 HXB-2D harboring reverse transcriptase M184V mutant gene infected in human cord blood mononuclear cells; assay type: functional, organism-based; settings: Human immunodeficiency virus 1, HXB-2D
[21] = test system: Human immunodeficiency virus 1; assay: Antiviral activity against wild type HIV1 HXB-2D infected in human cord blood mononuclear cells; assay type: functional, organism-based; settings: Human immunodeficiency virus 1, HXB-2D
[22] = test system: Human immunodeficiency virus 1; assay: Selectivity ratio of IC50 for 38 week drug adapted HIV1 HXB-2D harboring reverse transcriptase V101I/V, D177N, E194G mutant gene to IC50 for HIV1 HXB-2D harboring reverse transcriptase M184V mutant gene; assay type: functional
[23] = test system: Human immunodeficiency virus 1; assay: Selectivity ratio of IC50 for 32 week drug adapted HIV1 HXB-2D harboring reverse transcriptase V101I/V, D177N, E194G mutant gene to IC50 for HIV1 HXB-2D harboring reverse transcriptase M184V mutant gene; assay type: functional
[24] = test system: Human immunodeficiency virus 1; assay: Selectivity ratio of IC50 for 8 week drug adapted HIV1 HXB-2D harboring reverse transcriptase F87L/F mutant gene to IC50 for HIV1 HXB-2D harboring reverse transcriptase M184V mutant gene; assay type: functional
[25] = test system: Human immunodeficiency virus 1; assay: Selectivity ratio of IC50 for 17 week drug adapted HIV1 HXB-2D harboring reverse transcriptase D177N/D, E194E/G mutant gene to IC50 for HIV1 HXB-2D harboring reverse transcriptase M184V mutant gene; assay type: functional

Nc1ccn([C@H]2CO[C@@H](CO)S2)c(=O)n1 [APRICITABINE]
fold change (FC) [1]: 2.5
fold change (FC) [2]: 0.5
fold change (FC) [3]: 0.5
fold change (FC) [4]: 3
fold change (FC) [5]: 1.3
fold change (FC) [6]: 4
fold change (FC) [7]: 4
fold change (FC) [8]: 8
fold change (FC) [9]: 8
fold change (FC) [10]: 8
fold change (FC) [11]: 13.3
fold change (FC) [12]: 0.7
fold change (FC) [13]: 3.7
fold change (FC) [14]: 3.7
fold change (FC) [15]: 1.77
fold change (FC) [16]: 2.69
fold change (FC) [17]: 2.37
IC50 [18]: 13.4 µM
IC50 [19]: 20.3 µM
IC50 [20]: 17.9 µM
IC50 [21]: 7.54 µM
fold change (FC) [22]: 3.4
fold change (FC) [23]: 3.4
fold change (FC) [24]: 1.7
fold change (FC) [25]: 1.1
